Patent US20070249670A1, “Glycogen Phosphorylase Inhibitor Compounds and Pharmaceutical Compositions Thereof” (SMITHKLINE BEECHAM CORPORATION, priority 2004, published 2007)

Each compound was assayed against T1, human liver glycogen phosphorylase a (HLGPa) (Homo sapiens, UniProt P06737) (assay: Human liver glycogen phosphorylase a enzymatic activity assay (coupled, fluorescent resorufin readout, with and without 10 mM glucose)). Conditions: human liver glycogen phosphorylase a; table does not say whether with or without 10 mM glucose.
T1 construct: creating a full-length cDNA fused at the 5′ end to codons for methionine-glycine-alanine-histidine; 6xHis tag (leader Met-Gly-Ala-His6-Gly-Gly) (N); made in house; host or cells: E. coli (bacterial expression plasmid pTXK1007LTev)
T1 sequence (P06737 2-847 limits assumed): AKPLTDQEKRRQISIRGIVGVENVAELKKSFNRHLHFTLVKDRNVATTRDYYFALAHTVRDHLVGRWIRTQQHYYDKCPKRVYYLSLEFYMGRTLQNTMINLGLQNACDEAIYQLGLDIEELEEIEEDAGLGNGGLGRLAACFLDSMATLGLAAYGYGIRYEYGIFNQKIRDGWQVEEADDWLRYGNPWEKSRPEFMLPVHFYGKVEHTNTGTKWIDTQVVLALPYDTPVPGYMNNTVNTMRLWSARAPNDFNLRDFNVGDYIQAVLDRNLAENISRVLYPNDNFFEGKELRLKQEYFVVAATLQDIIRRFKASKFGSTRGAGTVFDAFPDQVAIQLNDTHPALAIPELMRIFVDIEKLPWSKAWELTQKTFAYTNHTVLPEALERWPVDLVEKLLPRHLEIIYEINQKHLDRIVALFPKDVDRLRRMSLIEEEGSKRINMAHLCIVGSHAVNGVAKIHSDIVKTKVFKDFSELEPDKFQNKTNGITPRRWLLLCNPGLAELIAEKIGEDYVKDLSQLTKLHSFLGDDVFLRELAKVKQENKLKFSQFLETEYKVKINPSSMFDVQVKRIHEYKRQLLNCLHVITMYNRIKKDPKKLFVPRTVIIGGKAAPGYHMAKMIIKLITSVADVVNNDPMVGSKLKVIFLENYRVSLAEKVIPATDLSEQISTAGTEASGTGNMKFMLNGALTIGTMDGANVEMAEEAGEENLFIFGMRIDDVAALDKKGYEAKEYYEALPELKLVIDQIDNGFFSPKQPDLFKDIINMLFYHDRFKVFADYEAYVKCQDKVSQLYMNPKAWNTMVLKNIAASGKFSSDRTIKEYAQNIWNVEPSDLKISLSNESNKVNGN
Assay type: biochemical

| SMILES | IC50 |
| --- | --- |
| COc1ccc(-c2ccc(C(=O)N[C@H](C(=O)O)C3CCCCC3)c(NC(=O)Nc3c(Cl)cc(OC(F)(F)F)cc3Cl)c2)cc1 [Example 215, (2S)-Cyclohexyl({[3-{[({2,6-dichloro-4-[(trifluoromethyl)oxy]phenyl}amino)carbonyl]amino}-4′-(methyloxy)-4-biphenylyl]carbonyl}amino)ethanoic acid] | 9 nM |
| CCOc1ccc(-c2ccc(C(=O)N[C@H](C(=O)O)C3CCCCC3)c(NC(=O)Nc3c(C)cc(C)cc3C)c2)cc1 [Example 218, (2S)-Cyclohexyl({[4′-(ethyloxy)-3-({[(2,4,6-trimethylphenyl)amino]carbonyl}amino)-4-biphenylyl]carbonyl}amino)ethanoic acid] | 7 nM |
| CCCC[C@H](NC(=O)c1ccc(-c2ccc(OC)cc2)cc1NC(=O)Nc1c(C)cc(C)cc1C)C(=O)O [Example 219, N-{[4′-(methyloxy)-3-({[(2,4,6-trimethylphenyl)amino]carbonyl}amino)-4-biphenylyl]carbonyl}-L-norleucine] | 15 nM |
| COc1ccc(-c2ccc(C(=O)NC3(C(=O)O)CCCCCC3)c(NC(=O)Nc3c(C)cc(C)cc3C)c2)cc1 [Example 222, 1-({[4′-(methyloxy)-3-({[(2,4,6-trimethylphenyl)amino]carbonyl}amino)-4-biphenylyl]carbonyl}amino)cycloheptanecarboxylic acid] | 24 nM |
| Cc1cc(C)c(NC(=O)Nc2cc(-c3ccc(F)cc3)ccc2C(=O)N[C@H](C(=O)O)C2CCCCC2)c(C)c1 [Example 223, (2S)-Cyclohexyl({[4′-fluoro-3-({[(2,4,6-trimethylphenyl)amino]carbonyl}amino)-4-biphenylyl]carbonyl}amino)ethanoic acid] | 9 nM |
| Cc1cc(C)c(NC(=O)Nc2cc(-c3ccc4c(c3)OCO4)ccc2C(=O)N[C@H](C(=O)O)C2CCCCC2)c(C)c1 [Example 224, (2S)-({[4-(1,3-Benzodioxol-5-yl)-2-({[(2,4,6-trimethylphenyl)amino]carbonyl}amino)phenyl]carbonyl}amino)(cyclohexyl)-ethanoic acid] | 3 nM |
| Cc1cc(C)c(NC(=O)Nc2cc(F)ccc2C(=O)N[C@H](C(=O)O)[C@@H](C)OC(C)(C)C)c(C)c1 [Example 226, O-(1,1-Dimethylethyl)-N-{[4-fluoro-2-({[(2,4,6-trimethylphenyl)amino]carbonyl}amino)phenyl]carbonyl}-L-threonine] | 530 nM |
| Cc1cc(C)c(NC(=O)Nc2cc(-c3ccc(F)c(F)c3)ccc2C(=O)NC2(C(=O)O)CCCCCCC2)c(C)c1 [Example 227, 1-({[3′,4′-Difluoro-3-({[(2,4,6-trimethylphenyl)amino]carbonyl}amino)-4-biphenylyl]carbonyl}amino)cyclooctanecarboxylic acid] | 1 nM |
| Cc1cc(C)c(NC(=O)Nc2cc(-c3ccc4c(c3)OCCO4)ccc2C(=O)N[C@H](C(=O)O)C2CCCCC2)c(C)c1 [Example 228, (2S)-Cyclohexyl({[4-(2,3-dihydro-1,4-benzodioxin-6-yl)-2-({[(2,4,6-trimethylphenyl)amino]carbonyl}amino)phenyl]carbonyl}amino)ethanoic acid] | 4 nM |
| Cc1cc(C)c(NC(=O)Nc2cc(F)c(F)cc2C(=O)N[C@H](C(=O)O)C2CCCCC2)c(C)c1 [Example 230, (2S)-Cyclohexyl({[4,5-difluoro-2-({[(2,4,6-trimethylphenyl)amino]carbonyl}amino)phenyl]carbonyl}amino)ethanoic acid] | 58 nM |
| Cc1cc(C)c(NC(=O)Nc2cc(-c3cccc(F)c3)ccc2C(=O)N[C@H](C(=O)O)[C@@H](C)OC(C)(C)C)c(C)c1 [Example 233, O-(1,1-Dimethylethyl)-N-{[3′-fluoro-3-({[(2,4,6-trimethylphenyl)amino]carbonyl}amino)-4-biphenylyl]carbonyl}-L-threonine] | 23 nM |
| Cc1cc(C)c(NC(=O)Nc2cc(-c3cccc(F)c3)ccc2C(=O)N[C@H](C(=O)O)C2CCCCC2)c(C)c1 [Example 234, (2S)-Cyclohexyl({[3′-fluoro-3-({[(2,4,6-trimethylphenyl)amino]carbonyl}amino)-4-biphenylyl]carbonyl}amino)ethanoic acid] | 24 nM |
| COc1ccc(-c2ccc(C(=O)N[C@H](C(=O)O)[C@@H](C)OC(C)(C)C)c(NC(=O)Nc3c(C)cc(C)cc3C)c2)cc1F [Example 235, O-(1,1-Dimethylethyl)-N-{[3′-fluoro-4′-(methyloxy)-3-({[(2,4,6-trimethylphenyl)amino]carbonyl}amino)-4-biphenylyl]carbonyl}-L-threonine] | 13 nM |
| CCCc1cc(C)c(NC(=O)Nc2cc(-c3ccc(OC)cc3)ccc2C(=O)N[C@H](C(=O)O)[C@@H](C)OC(C)(C)C)c(C)c1 [Example 236, O-(1,1-Dimethylethyl)-N-{[3-({[(2,6-dimethyl-4-propylphenyl)amino]carbonyl}amino)-4′-(methyloxy)-4-biphenylyl]carbonyl}-L-threonine] | 4 nM |

Continued by falling IC50, values first:

| IC50 | SMILES |
| --- | --- |
| 1960 nM | Cc1cc(C)c(NC(=O)Nc2cc(S(C)(=O)=O)ccc2C(=O)N[C@H](C(=O)O)C2CCCCC2)c(C)c1 [Example 220, (2S)-Cyclohexyl({[4-(methylsulfonyl)-2-({[(2,4,6-trimethylphenyl)amino]carbonyl}amino)phenyl]carbonyl}amino)ethanoic acid] |
| 300 nM | Cc1cc(C)c(NC(=O)Nc2cc(F)ccc2C(=O)NC2(C(=O)O)CCCCCC2)c(C)c1 [Example 221, 1-({[4-Fluoro-2-({[(2,4,6-trimethylphenyl)amino]carbonyl}amino)phenyl]carbonyl}amino)cycloheptane-carboxylic acid] |
| 24 nM | Cc1cc(C)c(NC(=O)Nc2cc(-c3ccc(CN(C)C)cc3)ccc2C(=O)N[C@H](C(=O)O)C2CCCCC2)c(C)c1 [Example 213, (2S)-Cyclohexyl({[4′-[(dimethylamino)methyl]-3-({[(2,4,6-trimethylphenyl)amino]carbonyl}amino)-4-biphenylyl]carbonyl}amino)ethanoic acid] |
| 23 nM | O=C(Nc1cc(-c2ccccc2)ccc1C(=O)N[C@H](C(=O)O)C1CCCCC1)Nc1c(Cl)cc(OC(F)(F)F)cc1Cl [Example 214, (2S)-Cyclohexyl{[(3-{[({2,6-dichloro-4-[(trifluoromethyl)oxy]phenyl}amino)carbonyl]amino}-4-biphenylyl)carbonyl]amino}ethanoic acid] |
| 9 nM | Cc1cc(C)c(NC(=O)Nc2cc(-c3ccc(CN4CCOCC4)cc3)ccc2C(=O)N[C@H](C(=O)O)C2CCCCC2)c(C)c1 [Example 217, (2S)-cyclohexyl({[4′-(4-morpholinylmethyl)-3-({[(2,4,6-trimethylphenyl)amino]carbonyl}amino)-4-biphenylyl]carbonyl}amino)ethanoic acid] |
| 7 nM | COc1ccc(-c2ccc(C(=O)N[C@H](C(=O)O)[C@@H](C)OC(C)(C)C)c(NC(=O)Nc3c(Cl)cc(OC(F)(F)F)cc3Cl)c2)cc1 [Example 232, N-{[3-{[({2,6-Dichloro-4-[(trifluoromethyl)oxy]phenyl}amino)carbonyl]amino}-4′-(methyloxy)-4-biphenylyl]carbonyl}-O-(1,1-dimethylethyl)-L-threonine] |
| 6 nM | Cc1cc(C)c(NC(=O)Nc2cc(-c3ccc(CN4CCCC4)cc3)ccc2C(=O)N[C@H](C(=O)O)C2CCCCC2)c(C)c1 [Example 216, (2S)-Cyclohexyl({[4′-(1-pyrrolidinylmethyl)-3-({[(2,4,6-trimethylphenyl)amino]carbonyl}amino)-4-biphenylyl]carbonyl}amino)ethanoic acid] |
| 3 nM | COc1ccc(-c2ccc(C(=O)N[C@H](C(=O)O)C3CCCCC3)c(NC(=O)Nc3c(C)cc(C)cc3C)c2)cc1OC [Example 229, (2S)-({[3′,4′-Bis(methyloxy)-3-({[(2,4,6-trimethylphenyl)amino]carbonyl}amino)-4-biphenylyl]carbonyl}amino)(cyclohexyl)ethanoic acid] |
| 2 nM | COc1ccc(-c2ccc(C(=O)N[C@H](C(=O)O)[C@@H](C)OC(C)(C)C)c(NC(=O)Nc3c(C)cc(C)cc3C)c2)cc1 [Example 225, O-(1,1-Dimethylethyl)-N-{[4′-(methyloxy)-3-({[(2,4,6-trimethylphenyl)amino]carbonyl}amino)-4-biphenylyl]carbonyl}-L-threonine] |
| 1 nM | COc1ccc(-c2ccc(C(=O)NC3(C(=O)O)CCCCCCC3)c(NC(=O)Nc3c(C)cc(C)cc3C)c2)cc1 [Example 231, 1-({[4′-(Methyloxy)-3-({[(2,4,6-trimethylphenyl)amino]carbonyl}amino)-4-biphenylyl]carbonyl}amino)cyclooctanecarboxylic acid] |
